We go through eleven compounds from PMC9230671, “Fluorochrome Selection for Imaging Intraoperative Ovarian Cancer Probes” (Pharmaceuticals, 2022).

One data set concerns the target T1, COX-2 (Homo sapiens, UniProt P35354).
T1 construct: purchased Cayman Chemicals (bought through Sigma-Aldrich) 560131
T1 sequence (P35354 18-604): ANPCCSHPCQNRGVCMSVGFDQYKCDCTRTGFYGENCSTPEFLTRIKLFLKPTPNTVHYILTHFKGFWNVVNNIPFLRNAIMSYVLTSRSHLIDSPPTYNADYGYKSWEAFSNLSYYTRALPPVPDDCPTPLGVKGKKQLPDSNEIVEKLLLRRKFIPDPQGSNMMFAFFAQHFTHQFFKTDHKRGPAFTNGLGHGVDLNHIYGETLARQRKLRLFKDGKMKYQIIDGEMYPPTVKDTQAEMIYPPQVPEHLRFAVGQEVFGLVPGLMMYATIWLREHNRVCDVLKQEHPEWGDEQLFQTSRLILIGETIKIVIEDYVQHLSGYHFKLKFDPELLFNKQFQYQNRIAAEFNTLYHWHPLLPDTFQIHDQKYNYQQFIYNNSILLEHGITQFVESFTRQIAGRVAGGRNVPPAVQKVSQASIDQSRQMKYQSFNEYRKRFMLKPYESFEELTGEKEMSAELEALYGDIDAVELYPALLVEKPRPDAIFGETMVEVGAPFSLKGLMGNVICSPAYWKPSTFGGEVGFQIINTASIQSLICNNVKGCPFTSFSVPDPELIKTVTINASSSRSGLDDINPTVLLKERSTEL
As to the kind of experiment: COX-2 inhibition, COX (ovine/human) inhibitor screening assay kit. In kind it is biochemical. Conditions: for COX-2 inhibitory activity (in words): up to 50 µM final concentration. The method, then: (§1) Cell culture reagents were purchased from Euroclone (Milan, Italy). COX (ovine/human) inhibitor screening assay kit (Catalog No. 560131, Cayman Chemicals, Ann Arbor, MI, USA) was purchased from Sigma-Aldrich, Burlington, MA, USA. […] The other reagents were purchased from Sigma-Aldrich, Burlington, MA, USA.
(§2) The COX-1/2 inhibition screening experiments were carried out according to the manufacturer’s instructions. The plate was incubated for 60 min at r.t. under shaking and read with the Tecan Infinite 200 Microplate Reader at λ = 405 nm.
(§3) The graph between percent inhibition of the enzyme and corresponding concentration of the compound provided IC50 values for the probe compounds.

Data set [1] can be described thus: Fluorescence property measurements (absorption/emission spectra). More on the design: Stokes Shift: unit not given here. In kind it is physicochemical. The method, then:
The λabs and λem, of the target compounds were measured in aqueous solution (phosphate-buffered saline solution, PBS) at the concentration of 10^−5 M (Table 1).
Fluorescence spectra of all target compounds were determined in PBS and EtOH solutions (Table 1) with a Tecan Infinite 200 Microplate Reader. In all experiments, the excitation and the emission bandpass were set at λ = 5 nm. The emission spectra were obtained from λ = 280 to 850 nm, with excitation set at the appropriate excitation wavelength. Absorption spectra were recorded with a Shimadzu UV-1800 spectrophotometer.

In a further data set the target is T2, COX-1 (Ovis aries, UniProt P05979).
T2 construct: purchased Cayman Chemicals (bought through Sigma-Aldrich) 560131
T2 sequence (P05979 25-600): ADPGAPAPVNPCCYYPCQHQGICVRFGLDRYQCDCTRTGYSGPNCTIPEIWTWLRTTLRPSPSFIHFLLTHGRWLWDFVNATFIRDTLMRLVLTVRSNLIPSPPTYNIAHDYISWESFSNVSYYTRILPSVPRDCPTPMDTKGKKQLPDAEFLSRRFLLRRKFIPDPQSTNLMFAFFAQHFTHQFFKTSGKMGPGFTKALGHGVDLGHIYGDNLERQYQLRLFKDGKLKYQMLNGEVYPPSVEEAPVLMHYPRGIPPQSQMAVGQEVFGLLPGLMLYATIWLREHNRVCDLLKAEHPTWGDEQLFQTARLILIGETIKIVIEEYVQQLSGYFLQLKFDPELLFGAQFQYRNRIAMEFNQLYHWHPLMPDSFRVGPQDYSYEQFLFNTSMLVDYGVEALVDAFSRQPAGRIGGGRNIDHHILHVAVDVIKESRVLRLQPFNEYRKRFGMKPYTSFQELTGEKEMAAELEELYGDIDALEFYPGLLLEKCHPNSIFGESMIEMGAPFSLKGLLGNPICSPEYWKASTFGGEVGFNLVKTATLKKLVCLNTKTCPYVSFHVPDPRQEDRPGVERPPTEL
As to the kind of experiment: COX-1 inhibition, COX (ovine/human) inhibitor screening assay kit. In kind it is biochemical. Conditions: for inhibition at 50 µM: at 50 µM compound final concentration, read-out: COX-1 % inhib. As to the method:
as §1, §2, §3

The melting point is the temperature of the solid-liquid transition. As usually defined, the IC50 is the midpoint of a concentration-inhibition curve.

Structures are written as SMILES. Counter-ions that a name gives are not always drawn. Marks after values point to notes of the source that are not given here.

For `CCN1/C(=C/C=C/C=C/C=C/C2=[N+](CCCCCC(=O)NCCCCNC(=O)Cc3onc(-c4ccc(OC)cc4)c3-c3ccc(OC)cc3)c3ccc4ccccc4c3C2(C)C)C(C)(C)c2c1ccc1ccccc21` (as salt: chloride) [23 (MSA14), 3-(6-(4-(2-(3,4-Bis(4-methoxyphenyl)isoxazole-5-yl)acetamido)butyl)amino-6-oxohexyl)-2-[7-(1,3-dihydro-1,1-dimethyl-3-ethyl-2H-benz[e]indolin-2-yl-idene)-1,3,5-heptatrienyl]-1,1-dimethyl-3-(6-carboxilato-hexyl)-1H-benz[e]indolium chloride], the melting point was 220 °C (dec.).

`COc1ccc(-c2noc(CC(=O)NCCCCNS(=O)(=O)c3cccc4c(N(C)C)cccc34)c2-c2ccc(OC)cc2)cc1` [Compound 3a, 2-[3,4-Bis(4-methoxyphenyl)isoxazol-5-yl]-N-{4-[(5-dimethylaminonaphthalene)-1-sulfonamido]butyl}acetamide]: the melting point was in the range of 69 to 71 °C. Moreover, at COX-2, the IC50 is over 50 µM and the “COX-2 inhibitory activity (in words)” value is “almost inactive”. For the same compound, in data set [1] (PBS solution, 10^−5 M), the “Stokes Shift” value is 264, the λabs was 230 nm and the λem is 494 nm. Further, at COX-1, the “COX-1 inhibitory activity (in words)” value was “almost inactive”, the IC50 is over 50 µM and the inhibition at 50 µM worked out at 45%.

As to `COc1ccc(-c2noc(CC(=O)Nc3ccc(NS(=O)(=O)c4cccc5c(N(C)C)cccc45)cc3)c2-c2ccc(OC)cc2)cc1` [Compound 3b, 2-[3,4-Bis(4-methoxyphenyl)isoxazol-5-yl]-N-{4-[(5-dimethylaminonaphthalene)-1-sulfonamido]phenyl}acetamide], the melting point fell in the range of 120 to 122 °C. Besides, on COX-2, the concentration for half-maximal inhibition (IC50) was over 50 µM. Also, in data set [1] (PBS solution, 10^−5 M), the “Stokes Shift” value came out at 154, the λabs worked out at 360 nm and the λem is on record as 514 nm. For the same compound, on COX-1, the IC50 was 0.05 µM, the “SI (selectivity index)” value is over 1000 and the inhibition at 50 µM amounted to 44%.

`COc1ccc(-c2noc(CC(=O)Nc3ccc(-c4ccc(NS(=O)(=O)c5cccc6c(N(C)C)cccc56)cc4)cc3)c2-c2ccc(OC)cc2)cc1` [Compound 3c, 2-[3,4-Bis(4-methoxyphenyl)isoxazol-5-yl]-N-{4-[(5-dimethylaminonaphthalene)-1-sulfonamido]biphenyl}acetamide] returned a melting point of 240 to 241 °C. Besides, the IC50 against COX-2 is over 50 µM. Also, in data set [1] (PBS solution, 10^−5 M), the “Stokes Shift” value stood at 217, the λabs is 287 nm and the λem worked out at 504 nm. Also, on COX-1, half-maximal inhibition (IC50) was put at 0.06 µM, the “SI (selectivity index)” value is over 833 and the inhibition at 50 µM worked out at 71%.

The compound `COc1ccc(-c2noc(CC(=O)NCCCCCCNS(=O)(=O)c3cccc4c(N(C)C)cccc34)c2-c2ccc(OC)cc2)cc1` [Compound 6a] returned a melting point of 66 to 69 °C. On COX-2, this compound gave an IC50 of over 50 µM. Further, in data set [1] (ethanol (10^−5 M)), the “Stokes Shift” value stood at 273, the λabs is 248 ^b nm and the λem is on record as 521 ^b nm. At COX-1, the IC50 amounted to 12 µM, the “SI (selectivity index)” value was over 4 and the inhibition at 50 µM came to 74%.

For the compound `COc1ccc(-c2noc(CC(=O)NCCCCCCCCCCCCNS(=O)(=O)c3cccc4c(N(C)C)cccc34)c2-c2ccc(OC)cc2)cc1` [Compound 6b, 2-[3,4-Bis(4-methoxyphenyl)-5-yl]-N-{4-[(5-dimethylaminonaphthalene)-1-sulfonamido]dodecyl}acetamide], the melting point fell in the range of 126 to 129 °C. This compound yielded a concentration for half-maximal inhibition (IC50) against COX-2 of over 50 µM. Further, in data set [1] (PBS solution, 10^−5 M), the “Stokes Shift” value turned out to be 222, the λabs was 270 nm and the λem came out at 492 nm. At COX-1, the IC50 came to 0.1 µM, the “SI (selectivity index)” value is recorded as over 500 and the inhibition at 50 µM came out at 71%.

On to `COc1ccc(-c2noc(CC(=O)Nc3ccc(NC(=O)CCCCCCCCCCNS(=O)(=O)c4cccc5c(N(C)C)cccc45)cc3)c2-c2ccc(OC)cc2)cc1` [Compound 9], for which the melting point lay in the range of 140 to 143 °C. The IC50 against COX-2 was over 50 µM. Besides, in data set [1] (PBS solution, 10^−5 M), the “Stokes Shift” value is recorded as 222, the λabs was 274 nm and the λem amounted to 496 nm. Moreover, on COX-1, the IC50 was 0.7 µM, the “SI (selectivity index)” value is over 71 and the inhibition at 50 µM was found to be 83%.

Turning to `COc1ccc(-c2noc(CC(=O)NCCCCNc3ccc([N+](=O)[O-])c4nonc34)c2-c2ccc(OC)cc2)cc1` [Compound 13a, 2-(3,4-Bis(4-methoxyphenyl)isoxazol-5-yl)-N-(4-((7-nitrobenzo[c][1,2,5]oxadiazol-4-yl)amino)butyl)acetamide], the melting point was 165 °C (dec.). Further, the IC50 against COX-2 was over 50 µM. In data set [1] (PBS solution, 10^−5 M), the “Stokes Shift” value is on record as 82, the λabs is recorded as 482 nm and the λem is 564 nm. For the same compound, at COX-1, the IC50 was over 50 µM and the inhibition at 50 µM was 0%.

Take `COc1ccc(-c2noc(CC(=O)NCCCCCCNc3ccc([N+](=O)[O-])c4nonc34)c2-c2ccc(OC)cc2)cc1` [Compound 13b, 2-(3,4-Bis(4-methoxyphenyl)isoxazol-5-yl)-N-(6-((7-nitrobenzo[c][1,2,5]oxadiazol-4-yl)amino)hexyl)acetamide]: the IC50 at COX-2 was over 50 µM. In data set [1] (PBS solution, 10^−5 M), the “Stokes Shift” value is 64, the λabs stood at 490 nm and the λem was 554 nm. At COX-1, the concentration for half-maximal inhibition (IC50) is over 50 µM and the inhibition at 50 µM is 26%.

As for `COc1ccc(-c2noc(CC(=O)NCCCCCCCCCCCCNc3ccc([N+](=O)[O-])c4nonc34)c2-c2ccc(OC)cc2)cc1` [Compound 13c, 2-(3,4-Bis(4-methoxyphenyl)isoxazol-5-yl)-N-(12-((7-nitrobenzo[c][1,2,5]oxadiazol-4-yl)amino)dodecyl)acetamide], the IC50 at COX-2 was over 50 µM. Moreover, in data set [1] (PBS solution, 10^−5 M), the “Stokes Shift” value amounted to 55, the λabs came to 495 nm and the λem is recorded as 550 nm. On COX-1, the IC50 was over 50 µM and the inhibition at 50 µM is 28%.

In the case of `CCCN1C(=O)c2cccc3c(NCCCCCCNC(=O)Cc4onc(-c5ccc(OC)cc5)c4-c4ccc(OC)cc4)ccc(c23)C1=O` [Compound 17a, 2-(3,4-Bis(4-methoxyphenyl)isoxazol-5-yl)-N-(6-((1,3-dioxo-2-propyl-2,3-dihydro-1H-benzo[de]isoquinolin-6-yl)amino)hexyl)acetamide], the melting point fell in the range of 110 to 111 °C. On COX-2, the IC50 is over 50 µM and the “COX-2 inhibitory activity (in words)” value was “almost inactive”. In data set [1] (PBS solution, 10^−5 M), the “Stokes Shift” value was determined as 96, the λabs is given as 450 nm and the λem is given as 546 nm. For the same compound, at COX-1, half-maximal inhibition (IC50) required 0.08 µM, the “SI (selectivity index)” value is listed as over 625 and the inhibition at 50 µM amounted to 51%.
